The term DC50 denotes the concentration at which degradation of the target reaches its halfway point. Read a high DC50 as a less potent degrader.

The values that follow come from patent US20240158370A1, “CK1 alpha AND DUAL CK1 alpha / GSPT1 DEGRADING COMPOUNDS” (Innovo Therapeutics, Inc., priority 2022, published 2024).

One assay deals with T1, CK1α (Homo sapiens, UniProt P48729+Q96SW2).
T1 construct: CSNK1A1-HiBit KI HEK293(LgBit) Cells; host or cells: HEK293(LgBit) knock-in cells
Kind of assay: HiBiT degradation assay, CK1α, Procedure A. The format is cell-based. The following applies: six hours incubation. A digest of the protocol:
(§1)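 Six-hour treatment at 37° C, ten doses between 10 μM and 0.005 μM, then HiBiT lytic luminescence. Fitted DC50 and Ymin.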
(The HiBiT peptide binds its large partner to form an active luciferase.)

The next assay has as its target GSPT1 (Homo sapiens, UniProt P15170+Q96SW2). Description: HiBiT degradation assay, GSPT1, Procedure A. The arrangement: HiBit-GSPT1 KI HEK293(LgBit) Cells; host or cells: HEK293(LgBit) knock-in cells. The following applies: six hours incubation. The format is cell-based. A digest of the protocol:
as §1

Chain of GSPT1 (P15170 whole entry): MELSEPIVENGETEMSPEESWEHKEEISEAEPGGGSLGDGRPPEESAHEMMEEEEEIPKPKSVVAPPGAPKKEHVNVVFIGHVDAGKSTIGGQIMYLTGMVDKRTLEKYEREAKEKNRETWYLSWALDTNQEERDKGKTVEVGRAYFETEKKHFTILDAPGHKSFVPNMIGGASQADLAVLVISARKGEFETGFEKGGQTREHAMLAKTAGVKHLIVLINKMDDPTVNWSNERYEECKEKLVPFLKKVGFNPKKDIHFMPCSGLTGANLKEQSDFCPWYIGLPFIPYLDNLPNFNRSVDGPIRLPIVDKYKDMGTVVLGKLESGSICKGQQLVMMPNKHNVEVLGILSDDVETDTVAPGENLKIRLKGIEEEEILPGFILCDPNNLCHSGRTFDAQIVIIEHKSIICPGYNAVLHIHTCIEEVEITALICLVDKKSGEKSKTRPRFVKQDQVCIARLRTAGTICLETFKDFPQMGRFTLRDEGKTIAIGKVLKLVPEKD
Chain of GSPT1 (Q96SW2 whole entry): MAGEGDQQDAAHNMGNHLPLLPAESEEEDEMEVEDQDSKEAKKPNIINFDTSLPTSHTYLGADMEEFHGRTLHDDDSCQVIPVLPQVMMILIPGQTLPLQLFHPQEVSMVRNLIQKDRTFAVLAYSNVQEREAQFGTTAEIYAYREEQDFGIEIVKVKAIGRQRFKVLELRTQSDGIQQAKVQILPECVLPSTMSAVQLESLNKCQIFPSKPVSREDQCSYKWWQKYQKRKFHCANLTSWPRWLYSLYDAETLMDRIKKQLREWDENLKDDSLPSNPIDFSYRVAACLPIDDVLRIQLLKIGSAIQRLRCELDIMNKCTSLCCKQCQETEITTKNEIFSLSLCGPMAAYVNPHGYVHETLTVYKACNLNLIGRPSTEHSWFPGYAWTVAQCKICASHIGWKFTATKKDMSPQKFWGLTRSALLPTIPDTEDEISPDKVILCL
Chain of GSPT1 (Q16531 whole entry partner): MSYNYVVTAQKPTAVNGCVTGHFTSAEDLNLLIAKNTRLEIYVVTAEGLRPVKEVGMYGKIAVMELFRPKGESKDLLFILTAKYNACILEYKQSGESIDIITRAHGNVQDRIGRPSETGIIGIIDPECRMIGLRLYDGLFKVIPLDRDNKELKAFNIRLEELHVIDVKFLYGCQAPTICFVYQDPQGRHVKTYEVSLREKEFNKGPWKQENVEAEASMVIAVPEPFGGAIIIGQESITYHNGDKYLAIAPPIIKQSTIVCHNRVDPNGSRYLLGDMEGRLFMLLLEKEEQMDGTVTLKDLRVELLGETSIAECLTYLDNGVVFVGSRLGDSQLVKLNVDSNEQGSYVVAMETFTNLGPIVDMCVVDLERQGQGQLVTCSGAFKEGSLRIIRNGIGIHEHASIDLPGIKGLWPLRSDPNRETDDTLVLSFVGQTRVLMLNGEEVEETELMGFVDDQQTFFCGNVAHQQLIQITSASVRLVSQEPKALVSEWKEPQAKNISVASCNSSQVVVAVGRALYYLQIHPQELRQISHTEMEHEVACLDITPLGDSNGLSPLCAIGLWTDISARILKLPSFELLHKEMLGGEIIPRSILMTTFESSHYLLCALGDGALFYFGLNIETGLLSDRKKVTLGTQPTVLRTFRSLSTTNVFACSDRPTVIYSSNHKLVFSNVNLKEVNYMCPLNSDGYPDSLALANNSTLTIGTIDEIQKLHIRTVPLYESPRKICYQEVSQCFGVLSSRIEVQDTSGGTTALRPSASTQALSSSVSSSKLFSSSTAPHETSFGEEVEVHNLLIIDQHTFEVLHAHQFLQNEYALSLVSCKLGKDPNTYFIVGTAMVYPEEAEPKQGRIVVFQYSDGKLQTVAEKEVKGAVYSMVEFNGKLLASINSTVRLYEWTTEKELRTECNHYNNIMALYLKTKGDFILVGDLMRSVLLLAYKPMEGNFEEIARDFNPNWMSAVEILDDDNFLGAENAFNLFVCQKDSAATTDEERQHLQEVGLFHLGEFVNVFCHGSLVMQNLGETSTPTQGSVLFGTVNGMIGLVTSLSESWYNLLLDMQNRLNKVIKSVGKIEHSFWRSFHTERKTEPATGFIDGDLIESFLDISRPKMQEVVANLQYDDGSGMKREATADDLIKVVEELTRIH
T1 sequence (P48729 whole entry): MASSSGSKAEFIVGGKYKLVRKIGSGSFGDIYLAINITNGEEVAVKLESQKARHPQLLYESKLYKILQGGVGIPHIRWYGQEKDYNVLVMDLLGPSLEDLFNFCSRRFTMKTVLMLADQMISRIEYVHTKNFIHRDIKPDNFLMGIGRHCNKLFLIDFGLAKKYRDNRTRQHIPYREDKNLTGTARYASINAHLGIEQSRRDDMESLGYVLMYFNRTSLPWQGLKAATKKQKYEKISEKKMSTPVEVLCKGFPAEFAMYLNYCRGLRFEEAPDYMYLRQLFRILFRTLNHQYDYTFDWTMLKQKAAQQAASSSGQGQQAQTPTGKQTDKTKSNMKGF
T1 sequence (Q96SW2 whole entry): as the sequence (Q96SW2 whole entry) above
T1 sequence (Q16531 whole entry partner): as the sequence (Q16531 whole entry partner) above

Take `Cn1cnc(-c2ccc3c(c2)CN(C2CCC(=O)NC2=O)C3=O)c1-c1cccc(Cl)c1Cl` (stereo not drawn) [Example 284]: on CK1α, the “CK1α Ymin” value was “E (E = >25-75% remaining)” and the DC50 was less than 25 nM. For the same compound, on GSPT1, the DC50 is not below 25 nM and the “GSPT1 Ymin” value was “F (F = >75-100% remaining)”.

Regarding `Cn1cnc(-c2ccc3c(c2)CN(C2CCC(=O)NC2=O)C3=O)c1-c1cc(Cl)ccc1Cl` (stereo not drawn) [Example 285], on CK1α, the “CK1α Ymin” value was “E (E = >25-75% remaining)” and the DC50 is less than 25 nM. For the same compound, on GSPT1, the DC50 is less than 25 nM and the “GSPT1 Ymin” value was “F (F = >75-100% remaining)”.

For the compound `Cn1cnc(-c2ccc3c(c2)CN(C2CCC(=O)NC2=O)C3=O)c1-c1ccc(Cl)cc1Cl` (stereo not drawn) [Example 286], on CK1α, the “CK1α Ymin” value is on record as “D (D = >10- 25% remaining)” and the half-maximal degradation concentration (DC50) is less than 25 nM. For the same compound, on GSPT1, the DC50 is less than 25 nM and the “GSPT1 Ymin” value was “E (E = >25-75% remaining)”.

In the case of `Cn1cnc(-c2ccc3c(c2)CN(C2CCC(=O)NC2=O)C3=O)c1-c1ccc(N2CCCC2)cc1` (stereo not drawn) [Example 288], at CK1α, the “CK1α Ymin” value is on record as “C (C = 0-10% remaining)” and the DC50 was less than 25 nM. Also, at GSPT1, the DC50 is less than 25 nM and the “GSPT1 Ymin” value is “E (E = >25-75% remaining)”.

`CN(C)C(=O)c1ccc(-c2c(-c3ccc4c(c3)CN(C3CCC(=O)NC3=O)C4=O)ncn2C)cc1` (stereo not drawn) [Example 289]: on CK1α, the “CK1α Ymin” value was “C (C = 0-10% remaining)” and the DC50 is not below 25 nM. On GSPT1, the DC50 was not below 25 nM and the “GSPT1 Ymin” value is on record as “F (F = >75-100% remaining)”.

On to `CN(C)C(=O)c1cccc(-c2c(-c3ccc4c(c3)CN(C3CCC(=O)NC3=O)C4=O)ncn2C)c1` (stereo not drawn) [Example 290], for which, on CK1α, the “CK1α Ymin” value is “D (D = >10- 25% remaining)” and the DC50 is not below 25 nM. At GSPT1, the DC50 is not below 25 nM and the “GSPT1 Ymin” value is listed as “F (F = >75-100% remaining)”.

With `Cn1cnc(-c2ccc3c(c2)CN(C2CCC(=O)NC2=O)C3=O)c1-c1cccc(-c2ccccc2)c1` (stereo not drawn) [Example 291], at CK1α, the “CK1α Ymin” value is on record as “E (E = >25-75% remaining)” and the DC50 is less than 25 nM. Moreover, on GSPT1, the DC50 is not below 25 nM and the “GSPT1 Ymin” value is reported as “F (F = >75-100% remaining)”.

On to `Cn1cnc(-c2ccc3c(c2)CN(C2CCC(=O)NC2=O)C3=O)c1-c1ccc(F)c(C(F)(F)F)c1` (stereo not drawn) [Example 293], for which, at CK1α, the “CK1α Ymin” value is listed as “E (E = >25-75% remaining)” and the DC50 was not below 25 nM. On GSPT1, the DC50 was less than 25 nM and the “GSPT1 Ymin” value was “F (F = >75-100% remaining)”.

For the compound `Cn1cnc(-c2ccc3c(c2)CN(C2CCC(=O)NC2=O)C3=O)c1-c1ccc(-c2ccccc2)cc1` (stereo not drawn) [Example 294], on CK1α, the “CK1α Ymin” value is listed as “D (D = >10- 25% remaining)” and the DC50 is less than 25 nM. Besides, on GSPT1, the DC50 was less than 25 nM and the “GSPT1 Ymin” value was “E (E = >25-75% remaining)”.

For the compound `Cn1cnc(-c2ccc3c(c2)CN(C2CCC(=O)NC2=O)C3=O)c1-c1cccc(CN2CCCC2)c1` (stereo not drawn) [Example 295], at CK1α, the “CK1α Ymin” value was “D (D = >10- 25% remaining)” and the DC50 was not below 25 nM. On GSPT1, the DC50 is not below 25 nM and the “GSPT1 Ymin” value is on record as “F (F = >75-100% remaining)”.

As for `Cn1cnc(-c2ccc3c(c2)CN(C2CCC(=O)NC2=O)C3=O)c1-c1cccc(N2CCCCC2)c1` (stereo not drawn) [Example 296], on CK1α, the “CK1α Ymin” value is listed as “E (E = >25-75% remaining)” and the DC50 is less than 25 nM. For the same compound, at GSPT1, the DC50 was not below 25 nM and the “GSPT1 Ymin” value is recorded as “F (F = >75-100% remaining)”.

For `Cn1cnc(-c2ccc3c(c2)CN(C2CCC(=O)NC2=O)C3=O)c1-c1cccc(N2CCOCC2)c1` (stereo not drawn) [Example 297], at CK1α, the “CK1α Ymin” value is reported as “E (E = >25-75% remaining)” and the DC50 was less than 25 nM. Moreover, at GSPT1, the DC50 was not below 25 nM and the “GSPT1 Ymin” value is reported as “F (F = >75-100% remaining)”.

Regarding `Cn1cnc(-c2ccc3c(c2)CN(C2CCC(=O)NC2=O)C3=O)c1-c1ccc(-c2ccc(O)cc2)cc1` (stereo not drawn) [Example 298], at CK1α, the “CK1α Ymin” value was “E (E = >25-75% remaining)” and the DC50 is less than 25 nM. Besides, at GSPT1, the DC50 was not below 25 nM and the “GSPT1 Ymin” value is given as “F (F = >75-100% remaining)”.

Turning to `Cn1cnc(-c2ccc3c(c2)CN(C2CCC(=O)NC2=O)C3=O)c1-c1ccc(-c2ccc(C#N)cc2)cc1` (stereo not drawn) [Example 299], at CK1α, the “CK1α Ymin” value is on record as “C (C = 0-10% remaining)” and the DC50 was less than 25 nM. In addition, at GSPT1, the DC50 was not below 25 nM and the “GSPT1 Ymin” value is on record as “F (F = >75-100% remaining)”.

In the case of `Cn1cnc(-c2ccc3c(c2)CN(C2CCC(=O)NC2=O)C3=O)c1-c1ccc(C(=O)NC2CCCC2)cc1` (stereo not drawn) [Example 300], on CK1α, the “CK1α Ymin” value is reported as “D (D = >10- 25% remaining)” and the DC50 was not below 25 nM. On GSPT1, the DC50 was not below 25 nM and the “GSPT1 Ymin” value is reported as “F (F = >75-100% remaining)”.

Consider `Cn1cnc(-c2ccc3c(c2)CN(C2CCC(=O)NC2=O)C3=O)c1-c1cccc2c1CCC2` (stereo not drawn) [Example 301], for which, on CK1α, the “CK1α Ymin” value was “D (D = >10- 25% remaining)” and the DC50 was less than 25 nM. Further, on GSPT1, the DC50 was not below 25 nM and the “GSPT1 Ymin” value was “F (F = >75-100% remaining)”.

Turning to `Cn1cnc(-c2ccc3c(c2)CN(C2CCC(=O)NC2=O)C3=O)c1-c1cccc(C(=O)NC2CCCCC2)c1` (stereo not drawn) [Example 302], at CK1α, the “CK1α Ymin” value was “E (E = >25-75% remaining)” and the DC50 was not below 25 nM. On GSPT1, the DC50 was not below 25 nM and the “GSPT1 Ymin” value is “F (F = >75-100% remaining)”.

As for `COc1cccc(COc2cccc(-c3c(-c4ccc5c(c4)CN(C4CCC(=O)NC4=O)C5=O)ncn3C)c2)c1` (stereo not drawn) [Example 303], on CK1α, the “CK1α Ymin” value was “E (E = >25-75% remaining)” and the DC50 was less than 25 nM. On GSPT1, the DC50 was not below 25 nM and the “GSPT1 Ymin” value was “F (F = >75-100% remaining)”.

Take `Cn1cnc(-c2ccc3c(c2)CN(C2CCC(=O)NC2=O)C3=O)c1-c1ccc(OCc2ccccc2)c(Cl)c1` (stereo not drawn) [Example 304]: on CK1α, the “CK1α Ymin” value is “D (D = >10- 25% remaining)” and the DC50 is less than 25 nM. For the same compound, on GSPT1, the DC50 is less than 25 nM and the “GSPT1 Ymin” value is “F (F = >75-100% remaining)”.

For `Cn1cnc(-c2ccc3c(c2)CN(C2CCC(=O)NC2=O)C3=O)c1-c1ccc(-c2ccncc2)cc1` (stereo not drawn) [Example 305], on CK1α, the “CK1α Ymin” value was “C (C = 0-10% remaining)” and the DC50 was less than 25 nM. On GSPT1, the DC50 is less than 25 nM and the “GSPT1 Ymin” value is given as “F (F = >75-100% remaining)”.

For `Cn1cnc(-c2ccc3c(c2)CN(C2CCC(=O)NC2=O)C3=O)c1-c1ccc(S(C)(=O)=O)cc1` (stereo not drawn) [Example 306], at CK1α, the “CK1α Ymin” value is recorded as “E (E = >25-75% remaining)” and the DC50 is not below 25 nM. On GSPT1, the DC50 was not below 25 nM and the “GSPT1 Ymin” value was “E (E = >25-75% remaining)”.

In the case of `Cn1cnc(-c2ccc3c(c2)CN(C2CCC(=O)NC2=O)C3=O)c1-c1ccc(C(=O)NCc2ccccc2)c(Cl)c1` (stereo not drawn) [Example 307], at CK1α, the “CK1α Ymin” value is “D (D = >10- 25% remaining)” and the DC50 was not below 25 nM. For the same compound, on GSPT1, the half-maximal degradation concentration (DC50) was less than 25 nM and the “GSPT1 Ymin” value is “F (F = >75-100% remaining)”.

Consider `Cn1cnc(-c2ccc3c(c2)CN(C2CCC(=O)NC2=O)C3=O)c1-c1ccc(Oc2cccnc2)cc1` (stereo not drawn) [Example 308], for which, at CK1α, the “CK1α Ymin” value was “D (D = >10- 25% remaining)” and the DC50 was less than 25 nM. In addition, on GSPT1, the DC50 is not below 25 nM and the “GSPT1 Ymin” value was “F (F = >75-100% remaining)”.

Take `Cn1cnc(-c2ccc3c(c2)CN(C2CCC(=O)NC2=O)C3=O)c1-c1ccc(CN2CCOCC2)cc1` (stereo not drawn) [Example 309]: on CK1α, the “CK1α Ymin” value is on record as “D (D = >10- 25% remaining)” and the DC50 is less than 25 nM. Further, at GSPT1, the DC50 is less than 25 nM and the “GSPT1 Ymin” value is listed as “F (F = >75-100% remaining)”.

Take `Cn1cnc(-c2ccc3c(c2)CN(C2CCC(=O)NC2=O)C3=O)c1-c1ccc(OCc2ccccc2)cc1` (stereo not drawn) [Example 310]: on CK1α, the “CK1α Ymin” value is recorded as “D (D = >10- 25% remaining)” and the DC50 is less than 25 nM. Further, at GSPT1, the DC50 is not below 25 nM and the “GSPT1 Ymin” value was “F (F = >75-100% remaining)”.

Regarding `Cn1cnc(-c2ccc3c(c2)CN(C2CCC(=O)NC2=O)C3=O)c1-c1ccc(COc2ccccc2)cc1` (stereo not drawn) [Example 311], at CK1α, the “CK1α Ymin” value is “D (D = >10- 25% remaining)” and the DC50 is less than 25 nM. Moreover, on GSPT1, the DC50 was less than 25 nM and the “GSPT1 Ymin” value is on record as “E (E = >25-75% remaining)”.

For the compound `CN1CCN(Cc2cccc(-c3c(-c4ccc5c(c4)CN(C4CCC(=O)NC4=O)C5=O)ncn3C)c2)CC1` (stereo not drawn) [Example 312], at CK1α, the “CK1α Ymin” value is on record as “D (D = >10- 25% remaining)” and the DC50 was not below 25 nM. For the same compound, on GSPT1, the DC50 was not below 25 nM and the “GSPT1 Ymin” value is on record as “F (F = >75-100% remaining)”.

`CN1CCN(Cc2ccc(-c3c(-c4ccc5c(c4)CN(C4CCC(=O)NC4=O)C5=O)ncn3C)cc2)CC1` (stereo not drawn) [Example 313]: on CK1α, the “CK1α Ymin” value was “D (D = >10- 25% remaining)” and the DC50 is not below 25 nM. At GSPT1, the DC50 was not below 25 nM and the “GSPT1 Ymin” value is recorded as “F (F = >75-100% remaining)”.

In the case of `Cn1cnc(-c2ccc3c(c2)CN(C2CCC(=O)NC2=O)C3=O)c1-c1ccc(C(=O)N2CCOCC2)cc1` (stereo not drawn) [Example 314], at CK1α, the “CK1α Ymin” value was “E (E = >25-75% remaining)” and the DC50 is not below 25 nM. Also, at GSPT1, the DC50 was not below 25 nM and the “GSPT1 Ymin” value was “F (F = >75-100% remaining)”.

Turning to `Cn1cnc(-c2ccc3c(c2)CN(C2CCC(=O)NC2=O)C3=O)c1-c1ccc(N2CCOCC2)c(Cl)c1` (stereo not drawn) [Example 315], on CK1α, the “CK1α Ymin” value is “D (D = >10- 25% remaining)” and the DC50 was less than 25 nM. Moreover, at GSPT1, the DC50 was not below 25 nM and the “GSPT1 Ymin” value is recorded as “F (F = >75-100% remaining)”.
